Molecular target: T1, WIZ protein (HiBit-WIZ fusion protein) (Homo sapiens, UniProt O95785+Q96SW2)
T1 construct: expressed in transfected cells
Experiment: Quantification of WIZ protein levels in HiBit tag fusion protein assay (WIZ HiBit assay in 293T cells)
Assay type: cell-based
Set-up: remaining activity / Dmax: dose or concentration left out as unconfirmed
Conditions: for Dmax at 25 µM: 100 − Amax; for Dmax at 25 µM / remaining activity at 25 µM: 293T cells; for remaining activity at 25 µM: DMSO-normalized, curve-fitted percentage of WIZ-HiBit remaining at 25 uM; for DC50: WIZ HiBit assay in 293T cells, 10-point, 5-fold dose response, highest concentration 25 μM, about 18 hours, read-out: WIZ AC50
Procedure: The HiBit system from Promega was used to develop high-throughput and quantitative assays to measure changes in WIZ protein levels in response to compounds. The HiBit tag was derived from a split Nanoluciferase and has the following protein sequence: […] (SEQ ID NO: 1). The complementary fragment of Nanoluciferase (known as LgBit, from Promega), was added to the HiBit tag to form an active Nanoluciferase enzyme whose activity can be precisely measured. In this way, the levels of a fusion protein with the HiBit tag can be quantified in cell lysates.
Lentiviral vectors, based on the Invitrogen™ pLenti6.2/V5 DEST backbone were constructed that places the HiBit tag upstream of WIZ and expressed the fusion protein from an HSVTK promotor.
To ensure moderate and consistent expression of the HiBit-WIZ fusion protein across all cells in the population, stable cell lines were constructed from cells harboring a single copy of the construct. Lentivirus packaged with the constructs were made using the ViraPower™ kit from Invitrogen™. 293T cells from ATCC (Catalog number: CRL-3216), were infected with the virus at low multiplicity of infection and selected by 5 μg/mL blasticidin in culture media for 2 weeks.
The levels of HiBit-WIZ tagged fusion proteins in compound-treated cell lines were measured as follows:
On day 1, cells were diluted to 1.0×10^6 cells/ml in normal growth medium. 20 μL of cell suspension were plated in each well of a solid white 384-well plate. Plates were incubated overnight in a 37° C. and 5% CO2 humidified tissue culture incubator.
On day 2, serial dilutions of compounds were made in 384-well plates. Compound plates were set up with DMSO in columns 1, 2, 23, 24, and 10-point compound dilution series in column 3-12 and column 13-22. 10 mM stock solution of compound were placed into column 3 or 13 and a 1:5 serial dilution was carried out until there was a 10-point dilution series per compound. 50 nL of diluted compounds were transferred into the plated cells by Echo® (Labcyte) acoustic transfer. The highest concentration of compound was 25 μM. Plates were incubated overnight (about 18 hours) in a 37° C. and 5% CO2 humidified tissue culture incubator.
On day 3, plates were removed from the incubator and allowed to equilibrate at room temperature for 60 minutes. HiBit substrate (Nano-Glo® HiBit Lytic Detection System, Promega Catalogue number: N3050) was added as described by the manufacturers protocols. Plates were incubated at room temperature for 30 minutes and luminescence was read using an EnVision® reader (PerkinElmer®). Data was analyzed and visualized using the Spotfire® software package.
WIZ Degradation Activity of Compounds (Table 1)
WIZ Amax reflects the DMSO-normalized, curve-fitted percentage of WIZ-HiBit remaining at 25 uM. It was calculated by normalizing […] controls to 100%, parametric curve fitting of the dose response data (10-point, 5-fold), followed by calculation of response at 25 uM using the fitted equation (nd=not determined).

[1] = HEK-293T, read-out: % degradation of WIZ (100 − Amax)

T1 sequence (O95785 whole entry, the tested form may be a part): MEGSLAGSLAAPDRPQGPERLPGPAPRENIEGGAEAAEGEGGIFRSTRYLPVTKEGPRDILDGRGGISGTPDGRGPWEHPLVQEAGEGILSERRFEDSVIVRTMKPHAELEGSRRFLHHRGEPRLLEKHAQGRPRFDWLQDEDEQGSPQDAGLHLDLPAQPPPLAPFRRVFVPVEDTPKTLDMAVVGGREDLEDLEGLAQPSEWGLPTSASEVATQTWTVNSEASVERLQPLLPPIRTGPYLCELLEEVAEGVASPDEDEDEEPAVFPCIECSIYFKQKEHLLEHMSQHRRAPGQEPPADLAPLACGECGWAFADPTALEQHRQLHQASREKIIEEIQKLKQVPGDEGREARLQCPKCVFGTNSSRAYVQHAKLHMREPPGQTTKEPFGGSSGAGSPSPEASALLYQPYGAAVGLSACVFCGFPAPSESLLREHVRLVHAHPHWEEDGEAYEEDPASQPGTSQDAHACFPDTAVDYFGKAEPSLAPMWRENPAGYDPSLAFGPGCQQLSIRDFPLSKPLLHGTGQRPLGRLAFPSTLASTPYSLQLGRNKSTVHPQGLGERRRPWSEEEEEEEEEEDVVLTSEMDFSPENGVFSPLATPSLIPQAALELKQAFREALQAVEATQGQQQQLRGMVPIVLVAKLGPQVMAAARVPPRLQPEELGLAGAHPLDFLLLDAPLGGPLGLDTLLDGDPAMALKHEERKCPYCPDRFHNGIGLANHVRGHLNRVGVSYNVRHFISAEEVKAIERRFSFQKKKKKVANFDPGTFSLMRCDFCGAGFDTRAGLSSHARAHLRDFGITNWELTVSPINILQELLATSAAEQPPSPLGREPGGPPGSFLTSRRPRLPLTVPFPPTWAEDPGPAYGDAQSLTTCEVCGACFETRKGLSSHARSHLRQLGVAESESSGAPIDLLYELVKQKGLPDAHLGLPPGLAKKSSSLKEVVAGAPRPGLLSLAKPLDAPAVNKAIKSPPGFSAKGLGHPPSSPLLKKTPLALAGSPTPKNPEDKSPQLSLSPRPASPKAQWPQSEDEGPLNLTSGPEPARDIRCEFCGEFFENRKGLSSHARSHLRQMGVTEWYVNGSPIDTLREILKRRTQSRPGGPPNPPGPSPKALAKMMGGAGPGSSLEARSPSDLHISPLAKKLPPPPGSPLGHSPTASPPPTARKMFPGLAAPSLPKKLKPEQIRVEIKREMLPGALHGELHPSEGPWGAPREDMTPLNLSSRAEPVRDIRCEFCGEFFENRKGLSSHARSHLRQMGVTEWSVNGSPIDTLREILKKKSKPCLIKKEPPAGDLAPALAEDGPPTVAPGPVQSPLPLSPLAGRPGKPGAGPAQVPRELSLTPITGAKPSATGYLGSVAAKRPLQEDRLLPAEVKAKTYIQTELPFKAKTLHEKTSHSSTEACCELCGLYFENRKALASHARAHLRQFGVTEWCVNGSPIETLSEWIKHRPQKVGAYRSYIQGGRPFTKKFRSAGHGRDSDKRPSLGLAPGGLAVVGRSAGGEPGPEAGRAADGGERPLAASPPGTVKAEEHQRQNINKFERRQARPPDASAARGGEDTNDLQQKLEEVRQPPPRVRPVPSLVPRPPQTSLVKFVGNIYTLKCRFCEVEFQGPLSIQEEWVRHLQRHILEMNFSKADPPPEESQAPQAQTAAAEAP
T1 sequence (Q96SW2 whole entry, the tested form may be a part): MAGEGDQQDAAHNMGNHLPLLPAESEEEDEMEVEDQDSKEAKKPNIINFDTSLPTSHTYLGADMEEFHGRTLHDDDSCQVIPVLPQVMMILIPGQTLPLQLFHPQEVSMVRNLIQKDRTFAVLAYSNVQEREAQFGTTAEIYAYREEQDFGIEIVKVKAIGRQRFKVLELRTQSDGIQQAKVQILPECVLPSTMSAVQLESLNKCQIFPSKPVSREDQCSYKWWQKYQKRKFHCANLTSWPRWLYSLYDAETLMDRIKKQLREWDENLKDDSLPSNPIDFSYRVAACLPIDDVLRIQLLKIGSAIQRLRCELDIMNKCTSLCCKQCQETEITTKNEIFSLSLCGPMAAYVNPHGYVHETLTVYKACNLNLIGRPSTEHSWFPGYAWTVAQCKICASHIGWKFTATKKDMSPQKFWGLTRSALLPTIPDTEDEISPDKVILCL
T1 sequence (Q16531 whole entry partner, the tested form may be a part): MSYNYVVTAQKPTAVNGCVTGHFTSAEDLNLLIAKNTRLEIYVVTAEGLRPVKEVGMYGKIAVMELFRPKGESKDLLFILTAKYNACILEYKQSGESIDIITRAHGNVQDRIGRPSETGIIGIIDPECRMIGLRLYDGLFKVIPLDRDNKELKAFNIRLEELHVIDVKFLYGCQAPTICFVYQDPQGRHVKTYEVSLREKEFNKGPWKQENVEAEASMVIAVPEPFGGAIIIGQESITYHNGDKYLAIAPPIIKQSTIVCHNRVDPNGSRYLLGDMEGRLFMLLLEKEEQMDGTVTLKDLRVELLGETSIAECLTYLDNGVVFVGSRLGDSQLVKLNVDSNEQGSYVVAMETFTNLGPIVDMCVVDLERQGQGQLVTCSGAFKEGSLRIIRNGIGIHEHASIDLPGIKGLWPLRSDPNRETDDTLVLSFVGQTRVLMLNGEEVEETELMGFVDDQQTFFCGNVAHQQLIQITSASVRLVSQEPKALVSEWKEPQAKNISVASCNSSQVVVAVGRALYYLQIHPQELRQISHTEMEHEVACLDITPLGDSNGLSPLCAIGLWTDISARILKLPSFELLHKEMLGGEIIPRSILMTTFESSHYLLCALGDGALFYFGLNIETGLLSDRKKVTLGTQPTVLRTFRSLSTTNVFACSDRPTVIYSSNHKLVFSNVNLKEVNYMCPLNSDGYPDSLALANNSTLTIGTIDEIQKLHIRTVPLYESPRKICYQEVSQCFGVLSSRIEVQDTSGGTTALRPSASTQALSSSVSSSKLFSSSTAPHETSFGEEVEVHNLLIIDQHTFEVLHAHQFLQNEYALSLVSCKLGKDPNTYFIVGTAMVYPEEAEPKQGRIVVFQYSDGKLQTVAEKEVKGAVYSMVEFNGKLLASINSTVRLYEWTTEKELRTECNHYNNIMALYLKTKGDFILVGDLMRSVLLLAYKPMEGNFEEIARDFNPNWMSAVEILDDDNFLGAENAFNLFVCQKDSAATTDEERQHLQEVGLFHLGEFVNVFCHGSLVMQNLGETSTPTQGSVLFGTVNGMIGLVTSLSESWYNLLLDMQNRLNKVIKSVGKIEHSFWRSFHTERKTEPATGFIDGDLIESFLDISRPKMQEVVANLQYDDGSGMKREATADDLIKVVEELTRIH

| Dmax at 25 µM [1] [%] | remaining activity at 25 µM (HEK-293T, read-out: WIZ Amax) [%] | DC50 [nM] | Structure (SMILES) | Dmax [1] [%] | remaining activity (HEK-293T, read-out: WIZ Amax) [%] |
| --- | --- | --- | --- | --- | --- |
| 63 | 37 | 107 | O=C1CCN(c2cnn3ccc(CC4CCN(Cc5ccc(C(F)(F)F)cc5)CC4)cc23)C(=O)N1 [Example 57, 1-(5-((1-(4-(trifluoromethyl)benzyl)piperidin-4-yl)methyl)pyrazolo[1,5-a]pyridin-3-yl)dihydropyrimidine-2,4(1H,3H)-dione] | – | – |
| 54 | 46 | 318 | C[C@H]1CN(CC2CCCCC2)CCN1Cc1ccn2ncc(N3CCC(=O)NC3=O)c2c1 [Example 221] | – | – |
| 84 | 16 | 4 | CC(CN1CCC(Cc2ccn3ncc(N4CCC(=O)NC4=O)c3c2)CC1)C1CCCCC1 (stereo not drawn) [Example 10, 1-(5-((1-(2-cyclohexylpropyl)piperidin-4-yl)methyl)pyrazolo[1,5-a]pyridin-3-yl)dihydropyrimidine-2,4(1H,3H)-dione] | – | – |
| 27 | 73 | 4300 | CC(C)CN1CC(Cc2ccn3ncc(N4CCC(=O)NC4=O)c3c2)C1 [Example 134, 1-(5-((1-isobutylazetidin-3-yl)methyl)pyrazolo[1,5-a]pyridin-3-yl)dihydropyrimidine-2,4(1H,3H)-dione] | – | – |
| 90 | 10 | 33 | O=C1CCN(c2cnn3ccc(CC4CCN(S(=O)(=O)C5CCCC5)CC4)cc23)C(=O)N1 [Example 82] | – | – |
| 78 | 21 | 18 | C[C@H]1CN(Cc2ccn3ncc(N4CCC(=O)NC4=O)c3c2)CCN1C[C@H]1CCC(F)(F)C1 [Example 320, 1-(5-(((S)-4-(((S)-3,3-difluorocyclopentyl)methyl)-3-methylpiperazin-1-yl)methyl)pyrazolo[1,5-a]pyridin-3-yl)dihydropyrimidine-2,4(1H,3H)-dione] | – | – |
| 50 | 50 | 683 | O=C1CCN(c2cnn3ccc(CN4CCN(Cc5cccnc5)CC4)cc23)C(=O)N1 [Example 191, 1-(5-((4-(pyridin-3-ylmethyl)piperazin-1-yl)methyl)pyrazolo[1,5-a]pyridin-3-yl)dihydropyrimidine-2,4(1H,3H)-dione] | – | – |
| 81 | 19 | 36 | C[C@@H]1C[C@H](Cc2ccn3ncc(N4CCC(=O)NC4=O)c3c2)CCN1CC1CCCCC1 [Example 76] | – | – |
| 30 | 70 | 799 | CC(C)C(=O)N1CCN(Cc2ccn3ncc(N4CCC(=O)NC4=O)c3c2)C[C@@H]1C [Example 341, (S)-1-(5-((4-isobutyryl-3-methylpiperazin-1-yl)methyl)pyrazolo[1,5-a]pyridin-3-yl)dihydropyrimidine-2,4(1H,3H)-dione] | – | – |
| 89 | 11 | 76 | O=C1CCN(c2cnn3ccc(CC4CCN(S(=O)(=O)C5CCOCC5)CC4)cc23)C(=O)N1 [Example 83] | – | – |

| Structure (SMILES) | Dmax at 25 µM [1] [%] | remaining activity at 25 µM (HEK-293T, read-out: WIZ Amax) [%] | DC50 [nM] | Dmax [1] [%] | remaining activity (HEK-293T, read-out: WIZ Amax) [%] |
| --- | --- | --- | --- | --- | --- |
| O=C1CCN(c2cnn3ccc(CN4C[C@H]5CC[C@@H](C4)N5Cc4cccnc4)cc23)C(=O)N1 [Example 253, 1-(5-(((1R,5S)-8-(pyridin-3-ylmethyl)-3,8-diazabicyclo[3.2.1]octan-3-yl)methyl)pyrazolo[1,5-a]pyridin-3-yl)dihydropyrimidine-2,4(1H,3H)-dione] | 23 | 77 | 531 | – | – |
| COC(C)(C)CN1CCC(Cc2ccn3ncc(N4CCC(=O)NC4=O)c3c2)CC1 [Example 105, 1-(5-((1-(2-methoxy-2-methylpropyl)piperidin-4-yl)methyl)pyrazolo[1,5-a]pyridin-3-yl)dihydropyrimidine-2,4(1H,3H)-dione] | – | – | 2160 | 64 | 36 |
